The test system of series [1] is CHO.DXB11 derived clone. The settings on record: ethanol 0.057% v/v fed daily vs baseline, 12 day fed-batch, mAb1. As for the experimental part: To determine if ethanol altered mAb properties it was incorporated into fully defined and synthetic feed media and fed daily in a fed-batch process using micro—(15 mL working volume) bioreactors.
(§1) Antibody production was performed as described above for mAb 1.
Cell line A is a CHO.DXB11 derived clone producing mAb 1. Cell line B is a different CHO.DXB11 derived clone producing mAb1. The expression cassette is identical between the two cell lines.
(§2) Ethanol was fed daily 0.0% or 0.057% v/v using microscale bioreactors and two different cellular clones producing mAb1. Calculated cumulative cell culture concentration (concentration in vessel at time of cell harvest) of ethanol ranged between 0.0%-0.51% v/v. Bioreactor physical conditions were maintained at a pH of 7.0±0.2, dissolved oxygen at 30% air saturation and a temperature of 35° C. during logarithmic cellular growth phase and shifted to 31° C. during cellular production phase (temperature was shifted one day before max viable cell density was reached). Basal and feed media were fully synthetic and chemically defined containing no animal derived components.

Series [2] relates to CHO.DXB11 cells. The settings on record: 12 day fed-batch, prediction profile. An excerpt:
Ethanol was used in design of experiments (DOE) created with custom DOE design using JMP statistical software (World Wide Web.jmp.com/en_us/home.html). A response model was created using standard least squares to determine the significance of response from ethanol supplementation. Potential interactions with other supplemented components were also considered. Ethanol was fed daily between 0.0% and 0.1% using microscale bioreactors. FIG. 9 is a prediction response profile for Titer, Man5%, G0%, Acidic % and Basic % species while the change in response values for each of these is shown depicted in Table 4 below.

The test system of series [3] is CHO.DXB11 cells. The settings on record: fed once daily, range 0.1% to 0.4% v/v. As for the experimental part:
Ethanol cytotoxicity to CHO.DXB11 cells was determined by daily feed dosing. 4 mL of CHO cells at 3 e6/mL cellular density were seeded into 6 well deep plates, mixed at 150 RPM, and fed once daily with ethanol ranging from 0.1% to 0.4% volume to volume (v/v).

In series [4] the test system is CHO.DG44 derived clone. Particulars: higher ethanol concentrations (0.05%, 0.15% v/v fed daily) vs baseline, 13 day fed-batch, mAb 2. How it is done:
Antibody production was performed as described above for mAb 2. This cell line is a CHO.DG44 derived clone producing mAb 2.
Ethanol was fed daily between 0.0% and 0.15% v/v. Calculated cumulative cell culture concentration (concentration in vessel at time of cell harvest) of ethanol ranged between 0.0%-1.35% v/v. Bioreactor physical conditions were maintained at a pH of 7.0±0.1 shifted to 6.8±0.1, dissolved oxygen maintained at 30% air saturation and a constant temperature of 35° C. Basal and feed media were fully synthetic and chemically defined containing no animal derived components.

Series [5] concerns CHO.DXB11 cells. Particulars: high ethanol 0.144% v/v vs low ethanol 0.072% v/v fed daily, 14 day fed-batch, mAb 1. How it is done: as §1
as §2, with “0.072% (Low Ethanol)” for “0.0%”, “0.144% (High Ethanol) v/v.” for “0.057% v/v using microscale bioreactors and two different cellular clones producing mAb1.”, “0.79%-1.58%” for “0.0%-0.51%”, “oxygen maintained” for “oxygen”, “30% of” for “30%”, “saturation,” for “saturation and a”

Series [6] has as its system CHO.DXB11 cells. The settings on record: 14 day fed-batch. How it is done: as §1
Ethanol was fed daily between 0.0% and 0.018% v/v. Calculated cumulative cell culture concentration (concentration in vessel at time of cell harvest) of ethanol ranged between 0.0%-0.2% v/v. Bioreactor physical conditions were maintained at a pH of 7.0±0.2 shifted to 6.8±0.1, dissolved oxygen maintained at 30% air saturation and a constant temperature of 35° C. Basal and feed media were fully synthetic and chemically defined containing no animal derived components.
The same basal media was used in formulation #1 and #2. Feed formulation #1 and #2 were similar in composition containing the same type and amount of amino acids and vitamins. Salt and metal ion type and concentration were slightly varied. Both feeds were fully synthetic and chemically defined containing no animal derived components.

Series [7] deals with CHO.DXB11 cells. The series is described as follows: Fatty acid cytotoxicity, daily feed dosing. Particulars: solubilized in ethanol, fed once daily, 10 μM to 160 μM. How it is done: Fatty acid cytotoxicity to CHO.DXB11 cells was determined by daily feed dosing. 4 mL of CHO cells at 4 e^6/mL cellular density were seeded into 6 well deep plates, mixed at 150 RPM, and daily fed fatty acids. Fatty acids were solubilized in ethanol and fed once daily to increase well plate concentration from 10 μM to 160 μM.

[8] abbreviates: Formulation 1, ethanol 0.018% v/v fed daily vs baseline lacking ethanol.
Where [9] appears, read: Formulation 2, ethanol 0.018% v/v fed daily vs baseline lacking ethanol.

Read-outs that look alike come from different tables or passages of the source.

As for `CCO` [Ethanol, ethanol], in series [1] (both cell lines (A and B)), the “Effect on G1F % glycan species” value is recorded as “increased”, the “Effect on G2F % glycan species” value was “increased”, the “Effect on Man5% glycan species” value is on record as “decreased” and the “Effect on relative amount of acidic charge variants” value is “decreased”. For the same compound, the “Effect on relative percentage of basic charge variants” value in series [1] (both cell lines (A and B)) is reported as “slightly increasing”. Also, in series [1] (cell lines A and B), the “Effect on G0% glycan species” value is reported as “varied with respect to the cell line” and the “Effect on G0F % glycan species” value is recorded as “varied with respect to the cell line”. In series [2] (0.05% v/v ethanol fed daily), the “Change in Acidic %” value is −4.7%, the “Change in Basic %” value is given as “+1.0%”, the “Change in G0%” value is −0.7% and the “Change in Man5%” value is −1.9%. Further, in series [2] (0.05% v/v ethanol fed daily), the “Change in Titer” value is recorded as “+2.0%”. For the same compound, in series [2] (0.1% v/v ethanol fed daily), the “Change in Acidic %” value is listed as −9.3%, the “Change in Basic %” value is “+1.9%”, the “Change in G0%” value is −1.3% and the “Change in Man5%” value is reported as −3.8%. For the same compound, the “Change in Titer” value in series [2] (0.1% v/v ethanol fed daily) was “+3.9%”. Further, the “Daily ethanol feeding above which cell growth rate and cell viability were negatively affected” value in series [3] is recorded as “exceeded 0.3 % v/v”. Moreover, in series [4], the “Effect on G0F glycan species” value is recorded as “decreased”, the “Effect on G0 glycan species” value is “increased”, the “Effect on G1F glycan species” value is given as “increased” and the “Effect on G2F glycan species” value is reported as “increased”. In series [4], the “Effect on Man5 glycan species” value is recorded as “decreased” and the “Effect on high molecular weight species” value is listed as “decreased”. Moreover, in series [5], the “Effect on G0 glycan species” value is “less”, the “Effect on G1F glycan species” value was “greater”, the “Effect on G2F glycan species” value was “greater” and the “Effect on Man5 glycan species” value is given as “less”. Moreover, in series [5], the “Effect on high molecular weight species” value is “less” and the “Effect on low molecular weight species” value is recorded as “less”. In series [6] (setting [8]), the “Effect on G0F glycan species” value was “less”, the “Effect on G0 glycan species” value is “less”, the “Effect on G1F glycan species” value was “increased” and the “Effect on G2F glycan species” value is on record as “increased”. Moreover, in series [6] (setting [8]), the “Effect on Man5 glycan species” value is given as “increased”, the “Effect on acidic charge variants” value is “less” and the “Effect on basic charge variants” value was “increased”. In series [6] (setting [9]), the “Effect on G0F glycan species” value is reported as “greater”, the “Effect on G0 glycan species” value is given as “decreased”, the “Effect on G1F glycan species” value is on record as “decreased” and the “Effect on G2F glycan species” value is reported as “greater”. For the same compound, in series [6] (setting [9]), the “Effect on Man5 glycan species” value is recorded as “decreased” and the “Effect on acidic charge variants” value was “higher”.

With `CC/C=C\C/C=C\C/C=C\CCCCCCCC(=O)O` [linolenic acid], in series [7], the “Daily feeding concentration at which the supplement became toxic” value is “around 40 μM”.

The record behind these values is patent publication US10703800B2, “Cell culture medium” (La Jolla Biologics, Inc., priority 2016, dated 2020).
